Laboratory results from patent US20160355483A1, “COMPOUND BINDING TO PPARG BUT NOT ACTING AS PROMOTER AND PHARMACEUTICAL COMPOSITION FOR TREATING PPARG-RELATED DISEASES CONTAINING SAME AS ACTIVE INGREDIENT” (Hyundai Pharm Co., Ltd., priority 2014, published 2016).

Target: T1, PPARG (peroxisome proliferator activated receptor-gamma), GST-PPARG-LBD (Homo sapiens, UniProt P37231)
T1 construct: 15 μL of 5 nM GST-PPARG-LBD and 5 nM Tb-GST-antibody were added; purchased Invitrogen PV4894
T1 sequence (P37231 238-503 limits assumed): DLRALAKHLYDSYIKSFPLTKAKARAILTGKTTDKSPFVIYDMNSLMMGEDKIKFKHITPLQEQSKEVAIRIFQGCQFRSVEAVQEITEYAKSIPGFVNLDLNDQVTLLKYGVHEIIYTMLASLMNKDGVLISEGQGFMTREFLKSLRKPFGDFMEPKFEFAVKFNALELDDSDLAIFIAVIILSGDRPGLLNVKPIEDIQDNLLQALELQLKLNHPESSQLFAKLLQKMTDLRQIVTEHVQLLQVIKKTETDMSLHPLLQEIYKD
Experiment: LanthaScreen TR-FRET PPARG Competitive Binding Assay
Parameters: key: “+” indicates the degree of the binding activity, and as the number of “+” increases, the binding activity is stronger; ++: “+” indicates the degree of the binding activity, and as the number of “+” increases, the binding activity is stronger; +++: “+” indicates the degree of the binding activity, and as the number of “+” increases, the binding activity is stronger; ++++: “+” indicates the degree of the binding activity, and as the number of “+” increases, the binding activity is stronger
Settings: degree of binding activity
Description: The following experiment was performed to evaluate the PPARG (peroxisome proliferator activated receptor-gamma) binding capacity and transcriptional activity of the compounds prepared in the examples of the invention. For the experiment, LanthaScreen™ TR-FRET PPARG Competitive Binding Assay Kit (PV4894, Invitrogen) was used according to the manufacturer's instruction. […] The mixture was loaded in a 384-well plate (Greiner, 784075) by 20 μL per well, followed by reaction at room temperature for 1 hour. Upon completion of the reaction, fluorescence value was measured by using Flexstation 3 (Molecular Devices) with time-resolved fluorescence (RFU) mode (excitation 1: 340 nm, emission 1: 518 nm, excitation 2: 340 nm, emission 2: 488 nm, integration delay 50 μs, integration 400 μs). The results were calculated by using 518 nm RFUs/488 nm RFUs ratio. The activity of the compounds of the invention was compared with that of the vehicle, which was calculated by ratio according to the formula [100%−compound of the example ratio/vehicle ratio]. At this time, the binding activity ratio to rosiglitazone was compared.

Row | Structure (SMILES) | Binding assay (1 μLM)
1 | C[C@H](NC(=O)c1ccc2c(c1)CCCN2Cc1ccc(-c2ccccc2C(N)=O)cc1)c1ccc(F)c(F)c1 [Example 39, (S)-1-((2′-carbamoyl-[1,1′-biphenyl]-4-yl)methyl)-N-(1-(3,4-difluorophenyl)ethyl)-1,2,3,4-tetrahydroquinoline-6-carboxamide] | +++
2 | C[C@H](NC(=O)c1ccc2c(c1)CCCN2Cc1ccc(-c2ccccc2C(N)=O)cc1)c1ccc(OC(F)(F)F)cc1 [Example 34, (S)-1-((2′-carbamoyl-[1,1′-biphenyl]-4-yl)methyl)-N-(1-(4-(trifluoromethoxy)phenyl)ethyl)-1,2,3,4-tetrahydroquinoline-6-carboxamide] | ++++
3 | O=C(NCc1ccccc1Br)c1ccc2c(c1)CCCN2Cc1ccc(-c2ccccc2C(=O)O)cc1 [Example 29, 4′-((6-((2-bromobenzyl)carbamoyl)-3,4-dihydroquinoline-1(2H)-yl)methyl)-[1,1′-biphenyl]-2-carboxylic acid] | ++++
4 | Cc1cc(F)ccc1[C@H](C)NC(=O)c1ccc2c(c1)CCCN2Cc1ccc(-c2ccccc2C(=O)O)cc1 [Example 4, (S)-4′-((6-((1-(4-fluoro-2-methylphenyl)ethyl)carbamoyl)-3,4-dihydroquinoline-1(2H)-yl)methyl)-[1,1′-biphenyl]-2-carboxylic acid] | +++
5 | C[C@H](NC(=O)c1ccc2c(c1)OCCN2Cc1ccc(-c2ccccc2C(=O)O)cc1)c1ccc2ccccc2c1 [Example 87, (S)-4′-((7-((1-(naphthalene-2-yl)ethyl)carbamoyl)-2H-benzo[b][1,4]oxazine-4(3H)-yl)methyl)-[1,1′-biphenyl]-2-carboxylic acid] | ++++
6 | C[C@H](NC(=O)c1ccc2c(c1)CCCN2Cc1ccc(-c2ccccc2C(=O)O)cc1)c1ccc(OC(F)(F)F)cc1 [Example 11, (s)-4′-((6-((1-(4-(trifluoromethoxy)phenyl)ethyl)carbamoyl)-3,4-dihydroquinoline-1(2H)-yl)methyl)-[1,1′-biphenyl]-2-carboxylic acid] | ++++
7 | NC(=O)c1ccccc1-c1ccc(CN2CCCc3cc(C(=O)NCc4ccc(Br)cc4)ccc32)cc1 [Example 53, N-(4-bromobenzyl)-1-((2′-carbamoyl-[1,1′-biphenyl]-4-yl)methyl)-1,2,3,4-tetrahydroquinoline-6-carboxamide] | +++
8 | C[C@H](NC(=O)c1ccc2c(c1)OCCN2Cc1ccc(-c2ccccc2C(=O)O)cc1)c1ccc(OC(F)(F)F)cc1 [Example 75, (S)-4′-((7-((1-(4-(trifluoromethoxy)phenyl)ethyl)carbamoyl)-2H-benzo[b][1,4]oxazine-4(3H)-yl)methyl)-[1,1′-biphenyl]-2-carboxylic acid] | +++
9 | COc1ccccc1[C@H](C)NC(=O)c1ccc2c(c1)CCCN2Cc1ccc(-c2ccccc2C(=O)O)cc1 [Example 23, (S)-4′-((6-((1-(2-methoxyphenyl)ethyl)carbamoyl)-3,4-dihydroquinoline-1(2H)-yl)methyl)-[1,1′-biphenyl]-2-carboxylic acid] | +++
10 | COc1cccc([C@H](C)NC(=O)c2ccc3c(c2)CCCN3Cc2ccc(-c3ccccc3C(=O)O)cc2)c1 [Example 22, (S)-4′-((6-((1-(3-methoxyphenyl)ethyl)carbamoyl)-3,4-dihydroquinoline-1(2H)-yl)methyl)-[1,1′-biphenyl]-2-caboxylic acid] | +++
11 | C[C@H](NC(=O)c1ccc2c(c1)OCCN2Cc1ccc(-c2ccccc2C(N)=O)cc1)c1ccccc1 [Example 59, (S)-4-((2′-carbamoyl-[1,1′-biphenyl]-4-yl)methyl)-N-(1-phenylethyl)-3,4-dihydro-2H-benzo[b][1, 4]oxazine-7-carboxamide] | ++
12 | C[C@H](NC(=O)c1ccc2c(c1)CCCN2Cc1ccccc1-c1ccc(C(N)=O)cc1)c1ccc([N+](=O)[O-])cc1 [Example 159, (S)-1-((4′-carbamoyl-[1,1′-biphenyl]-2-yl)methyl)-N-(1-(4-nitrophenyl)ethyl)-1,2,3,4-tetrahydroquinoline-6-carboxamide] | +
13 | C[C@H](NC(=O)c1ccc2c(c1)CCCN2Cc1cc(-c2ccccc2C(N)=O)ccc1F)c1ccc2ccccc2c1 [Example 140, (S)-1-((2′-carbamoyl-4-fluoro-[1,1′-biphenyl]-3-yl)methyl)-N-(1-(naphthalene-2-yl)ethyl)-1,2,3,4-tetrahydroquinoline-6-carboxamide] | ++++
14 | O=C(NCc1ccc2c(c1)OCCO2)c1ccc2c(c1)OCCN2Cc1ccc(-c2ccccc2C(=O)O)cc1 [Example 93, 4′-((7-(((2,3-dihydrobenzo[b][1,4]dioxin-6-yl)methyl)carbamoyl)-2H-benzo[b][1,4]oxazine-4(3H)-yl)methyl)-[1,1′-biphenyl]-2-carboxylic acid] | ++
15 | C[C@H](NC(=O)c1ccc2c(c1)OCCN2Cc1ccccc1-c1ccc(C(N)=O)cc1)c1ccccc1 [Example 143, (S)-4-((4′-carbamoyl-[1,1′-biphenyl]-2-yl)methyl)-N-(1-phenylethyl)-3,4-dihydro-2H-benzo[b][1,4]oxazine-7-carboxamide] | ++
16 | Cc1ccc([C@H](C)NC(=O)c2ccc3c(c2)CCCN3Cc2ccc(-c3ccccc3C(=O)O)cc2)cc1F [Example 5, (S)-4′-((6-((1-(3-fluoro-4-methylphenyl)ethyl)carbamoyl)-3,4-dihydroquinoline-1(2H)-yl)methyl)-[1,1′-biphenyl]-2-caboxylic acid] | ++
17 | C[C@H](NC(=O)c1ccc2c(c1)OCCN2Cc1ccc(-c2ccccc2C(=O)O)cc1)c1ccc(C(F)(F)F)cc1 [Example 76, (S)-4′-((7-((1-(4-(trifluoromethyl)phenyl)ethyl)carbamoyl)-2H-benzo[b][1,4]oxazine-4(3H)-yl)methyl)-[1,1′-biphenyl]-2-carboxylic acid] | +++
18 | O=C(NCc1ccccn1)c1ccc2c(c1)CCCN2Cc1ccc(-c2ccccc2C(=O)O)cc1 [Example 26, 4′-((6-((pyridine-2-ylmethyl)carbamoyl)-3,4-dihydroquinoline-1(2H)-yl)methyl)-[1,1′-biphenyl]-2-carboxylic acid] | ++
19 | C[C@H](NC(=O)c1ccc2c(c1)OCCN2Cc1ccc(-c2ccccc2C(N)=O)cc1)c1cccc(F)c1 [Example 95, (S)-4-((2′-carbamoyl-[1,1′-biphenyl]-4-yl)methyl)-N-(1-(3-fluorophenyl)ethyl)-3,4-dihydro-2H-benzo[b][1,4]oxazine-7-carboxamide] | +++
20 | C[C@H](NC(=O)c1ccc2c(c1)CCCN2Cc1cccc(-c2ccccc2C(=O)O)c1)c1ccccc1 [Example 116, (S)-3′-((6-((1-phenylethyl)carbamoyl)-3,4-dihydroquinoline-1(2H)-yl)methyl)-[1,1′-biphenyl]-2-carboxylic acid] | +++
21 | C[C@H](NC(=O)c1ccc2c(c1)CCCN2Cc1ccc(-c2ccccc2C(N)=O)cc1)c1cccc(F)c1 [Example 45, (S)-1-((2′-carbamoyl-[1,1′-biphenyl]-4-yl)methyl)-N-(1-(3-fluorophenyl)ethyl)-1,2,3,4-tetrahydroquinoline-6-carboxamide] | +++
22 | O=C(NCc1ccccc1)c1ccc2c(c1)OCCN2Cc1ccc(-c2ccccc2C(=O)O)cc1 [Example 91, 4′-((7-(benzylcarbamoyl)-2H-benzo[b][1,4]oxazine-4(3H)-yl)methyl)-[1,1′-biphenyl]-2-carboxylic acid] | +++
23 | NC(=O)c1ccccc1-c1ccc(CN2CCCc3cc(C(=O)NCc4cccc(OC(F)(F)F)c4)ccc32)cc1 [Example 54, 1-((2′-carbamoyl-[1,1′-biphenyl]-4-yl)methyl)-N-(3-(trifluoromethoxy)benzyl)-1,2,3,4-tetrahydroquinoline-6-carboxamide] | +++
24 | C[C@H](NC(=O)c1ccc2c(c1)OCCN2Cc1ccc(-c2ccccc2C(=O)O)c(F)c1)c1ccccc1 [Example 162, (S)-2′-fluoro-4′-((7-((1-phenylethyl)carbamoyl)-2H-benzo[b][1,4]oxazine-4(3H)-yl)methyl)-[1,1′-biphenyl]-2-carboxylic acid] | +++
